Experimental findings from patent US20070031347A1, “Powdered Medicaments Containing A Tiotropium Salt and Salmeterol Xinafoate” (Boehringer Ingelheim Pharma GmbH & Co. KG, priority 2002, published 2007) are described below.

This series can be described thus: compacted bulk volume (tapped density, Ph. Eur. 4 / Carr packed bulk density). Format: physicochemical. As for the experimental part:
The compacted bulk volume is determined by the test method of the European Pharmacopoeia 4 (2002): “apparent density after settling”/“density of settled product”, identical to the “tapped density”, measured in grams per millilitre) or as the “Carr packed bulk density” according to the ASTM standard (D6393-99, Standard Test Method for Bulk Solids Characterization by Carr Indices), measured in grams per cm^3. The compacted bulk volume is a measurement of the volume which is taken up by solid, comminuted materials after they have been compacted under defined conditions.

Take `OCc1cc(C(O)CNCCCCCCOCCCCc2ccccc2)ccc1O` (centres unmarked) [salmeterol xinafoate]: the compacted bulk volume turned out to be 0.27 g/mL (crystalline salmeterol xinafoate as obtained from ethanol/tert.butylmethylether, before micronisation) and 0.19 g/mL (micronised salmeterol xinafoate (air jet mill, grinding pressure 7.5 bar, feed pressure 8.0 bar)).
